Measurements: patent US12173004B2, “Pharmaceutical compositions comprising heterocycle fused gamma carboline prodrugs” (INTRA-CELLULAR THERAPIES, INC., priority 2017, dated 2024)

Tests used:
D2 = D2 (Homo sapiens (Human), UniProt P14416); test: biochemical; conditions: read-out: maximum inhibition D2
5-HT2 receptor = 5-HT2 receptor (Mus musculus (Mouse), UniProt P35363); test: DOI-Induced Head Twitch Model in Mice; assay type: in vivo; conditions: po, p.o. 0.5 hr before DOI, read-out: EC50 (mg/kg, p.o.) for reducing DOI-induced head twitches
D1 = D1 (Homo sapiens (Human), UniProt P21728); conditions: read-out: Ki (nM) D1
[1] = target: TH (tyrosine hydroxylase) (Mus musculus (Mouse), UniProt P24529); test: CNS phosphoprotein profile, nucleus accumbens: TH; assay type: in vivo, mice; conditions: for increase in TH phosphorylation: Ser40, haloperidol at 2 mg/kg
Method: (§1) A comprehensive molecular phosphorylation study is also carried out to examine the central nervous system (CNS) profile of the compounds of Example 1 and Example 2. The extent of protein phosphorylation for selected key central nervous system proteins is measured in mice nucleus accumbens.
(§2) Mice were killed 30 minutes to 2 hours post-injection by focused microwave cranial irradiation, which preserves brain phosphoprotein as it exists at the time of death. Nucleus accumbens was then dissected from each mouse brain, sliced and frozen in liquid nitrogen. Samples were further prepared for phosphoprotein analysis via SDS-PAGE electrophoresis followed by phosphoprotein-specific immunoblotting, as described in Zhu H, et al., Brain Res. 2010 Jun. 25; 1342:11-23. Phosphorylation at each site was quantified, normalized to total levels of the protein (non-phosphorylated), and expressed as percent of the level of phosphorylation in vehicle-treated control mice.

ERK2 = ERK2 (Mus musculus (Mouse), UniProt P63085); test: CNS phosphoprotein profile, nucleus accumbens: ERK2; assay type: in vivo, mice; conditions: 3 mg/kg
Method: as §1, §2

GluR1 = GluR1 (Mus musculus (Mouse), UniProt P23818); test: CNS phosphoprotein profile, nucleus accumbens: GluR1; assay type: in vivo, mice; conditions: 3 mg/kg
Sequence of GluR1 (P23818 19-907 limits assumed): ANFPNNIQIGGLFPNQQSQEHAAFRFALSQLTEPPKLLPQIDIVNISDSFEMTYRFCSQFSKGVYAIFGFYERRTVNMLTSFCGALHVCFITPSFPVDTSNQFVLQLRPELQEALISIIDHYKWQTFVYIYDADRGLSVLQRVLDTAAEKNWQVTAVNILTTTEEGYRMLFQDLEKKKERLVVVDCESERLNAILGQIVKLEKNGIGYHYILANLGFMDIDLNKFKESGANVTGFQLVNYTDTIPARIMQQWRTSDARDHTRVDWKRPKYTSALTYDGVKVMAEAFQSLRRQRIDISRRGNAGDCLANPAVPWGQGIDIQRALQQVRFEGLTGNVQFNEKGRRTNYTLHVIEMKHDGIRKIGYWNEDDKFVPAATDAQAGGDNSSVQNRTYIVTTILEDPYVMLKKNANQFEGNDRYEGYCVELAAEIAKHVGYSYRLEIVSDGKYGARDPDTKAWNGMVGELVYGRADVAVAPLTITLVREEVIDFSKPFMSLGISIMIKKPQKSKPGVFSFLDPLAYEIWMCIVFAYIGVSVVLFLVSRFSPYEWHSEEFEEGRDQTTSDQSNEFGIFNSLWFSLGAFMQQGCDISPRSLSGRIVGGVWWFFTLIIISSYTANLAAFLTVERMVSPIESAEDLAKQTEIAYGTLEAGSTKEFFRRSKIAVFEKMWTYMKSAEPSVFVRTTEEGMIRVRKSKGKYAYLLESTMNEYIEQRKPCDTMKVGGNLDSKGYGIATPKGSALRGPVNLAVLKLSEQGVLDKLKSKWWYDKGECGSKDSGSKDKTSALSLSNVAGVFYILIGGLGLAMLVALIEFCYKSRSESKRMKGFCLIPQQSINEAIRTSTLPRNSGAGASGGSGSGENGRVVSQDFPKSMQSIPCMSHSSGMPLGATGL
Method: as §1, §2

NR2B = NR2B (Mus musculus (Mouse), UniProt Q01097); test: CNS phosphoprotein profile, nucleus accumbens: NR2B; assay type: in vivo, mice; conditions: 3 mg/kg, at 30-60 minutes
Sequence of NR2B (Q01097 27-1482 limits assumed): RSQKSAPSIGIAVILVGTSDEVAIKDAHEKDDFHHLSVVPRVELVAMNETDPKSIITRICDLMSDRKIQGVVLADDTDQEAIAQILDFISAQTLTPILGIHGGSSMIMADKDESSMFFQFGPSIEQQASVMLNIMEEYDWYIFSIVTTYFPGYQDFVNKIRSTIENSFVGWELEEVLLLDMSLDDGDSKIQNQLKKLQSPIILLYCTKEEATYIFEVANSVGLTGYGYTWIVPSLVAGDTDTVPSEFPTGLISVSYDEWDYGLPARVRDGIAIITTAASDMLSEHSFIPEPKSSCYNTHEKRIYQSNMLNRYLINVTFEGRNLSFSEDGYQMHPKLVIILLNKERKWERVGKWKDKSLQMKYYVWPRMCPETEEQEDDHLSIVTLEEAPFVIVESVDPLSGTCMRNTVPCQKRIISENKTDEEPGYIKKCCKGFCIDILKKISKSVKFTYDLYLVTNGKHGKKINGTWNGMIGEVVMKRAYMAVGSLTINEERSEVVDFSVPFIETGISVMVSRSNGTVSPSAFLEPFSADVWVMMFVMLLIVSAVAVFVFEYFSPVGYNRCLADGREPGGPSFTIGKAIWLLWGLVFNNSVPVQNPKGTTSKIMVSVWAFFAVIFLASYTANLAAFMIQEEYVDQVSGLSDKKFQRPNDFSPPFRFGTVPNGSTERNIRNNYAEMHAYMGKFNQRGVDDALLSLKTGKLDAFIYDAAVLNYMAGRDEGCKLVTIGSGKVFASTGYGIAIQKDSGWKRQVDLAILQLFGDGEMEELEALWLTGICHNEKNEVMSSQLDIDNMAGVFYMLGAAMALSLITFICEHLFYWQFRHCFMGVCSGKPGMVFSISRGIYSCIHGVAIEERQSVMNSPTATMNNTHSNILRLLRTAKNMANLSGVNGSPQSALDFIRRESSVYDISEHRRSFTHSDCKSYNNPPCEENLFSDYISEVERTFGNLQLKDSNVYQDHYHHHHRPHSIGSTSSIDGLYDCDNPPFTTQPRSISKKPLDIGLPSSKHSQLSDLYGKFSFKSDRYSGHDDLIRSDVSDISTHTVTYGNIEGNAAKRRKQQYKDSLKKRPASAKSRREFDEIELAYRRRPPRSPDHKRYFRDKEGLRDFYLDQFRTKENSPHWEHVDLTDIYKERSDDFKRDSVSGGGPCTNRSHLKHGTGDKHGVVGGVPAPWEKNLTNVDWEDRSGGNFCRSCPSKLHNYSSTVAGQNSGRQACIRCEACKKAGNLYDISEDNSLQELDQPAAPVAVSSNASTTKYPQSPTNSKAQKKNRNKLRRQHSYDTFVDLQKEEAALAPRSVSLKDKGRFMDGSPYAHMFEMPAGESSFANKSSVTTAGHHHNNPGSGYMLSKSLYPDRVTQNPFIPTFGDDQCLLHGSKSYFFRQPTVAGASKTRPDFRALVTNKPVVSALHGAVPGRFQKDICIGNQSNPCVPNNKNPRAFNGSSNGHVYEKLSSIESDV
Method: as §1, §2

in vivo [2] = conditions: rat, iv, 1 mg/kg
rats [3] = test: Pulmonary function in rats; assay type: in vivo; conditions: for RR (breaths/min): 60 minutes
C57 mice = test: Formalin Paw Test (Inflammatory Pain Model); assay type: in vivo
Mice = test: Mouse Marble-Burying Study (OCD Model); assay type: in vivo
From the text: The marble burying test is used to measure repetitive and anxiety-related behavior in rodents. It is based on the observation that rats and mice will bury either harmful or harmless objects in their bedding, and it has been used as an animal model to measure the effect of pharmacological interventions in treatment of repetitive behavior disorders, such as OCD.
MPEP is a selective mGluR5 glutamate receptor antagonist. […] Mice in groups (1) are orally administered the vehicle, and mice in group (4) are given an intraperitoneal injection of MPEP just prior to the start of the test.
The test is conducted in rectangular cages with 4-5 cm of wood chip bedding in a room with the window shades lowered and the door closed to minimize distractions. Fifteen clean marbles are evenly spaced on top of the bedding in three rows of five marbles. One mouse is placed in each cage. The mouse and cage is left undisturbed for 30 minutes. At the end of the test, the mouse is removed and the number of marbles buried to at least ⅔ of their depth is counted.

in vivo [4] = conditions: mouse
rats [5] = test: Gastrointestinal motility, activated charcoal transit in rats; conditions: morphine 5 mg/kg SC
[6] = Cmpd, PO 3.0 mg/kg, 30 min prior to formalin
[7] = Cmpd, SC 0.3 mg/kg, 30 min prior to formalin
[8] = Cmpd, SC 1.0 mg/kg, 30 min prior to formalin
[9] = Cmpd, SC 3.0 mg/kg, 30 min prior to formalin
[10] = morphine 5 mg/kg SC, 30 min prior to formalin

Sequence of D2 (P14416 with tags, fused parts or gaps limits assumed): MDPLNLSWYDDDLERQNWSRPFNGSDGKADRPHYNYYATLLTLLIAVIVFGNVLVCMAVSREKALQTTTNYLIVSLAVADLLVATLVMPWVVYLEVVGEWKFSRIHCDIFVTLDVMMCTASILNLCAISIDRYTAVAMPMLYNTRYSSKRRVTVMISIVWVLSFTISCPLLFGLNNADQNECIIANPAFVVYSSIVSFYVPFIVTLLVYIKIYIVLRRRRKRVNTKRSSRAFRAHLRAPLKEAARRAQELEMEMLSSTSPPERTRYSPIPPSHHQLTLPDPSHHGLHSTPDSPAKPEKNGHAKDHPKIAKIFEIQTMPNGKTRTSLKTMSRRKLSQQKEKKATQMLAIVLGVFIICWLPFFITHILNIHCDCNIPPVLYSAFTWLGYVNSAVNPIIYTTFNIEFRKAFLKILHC

O=C1CN2c3c(cccc3[C@@H]3CN(CCCC(=O)c4ccc(F)cc4)CC[C@@H]32)N1 [Example 1]
inhibition at […] (D2): 47% | ED50 (5-HT2 receptor): 0.23 mg/kg | Ki (D1): 22 nM | effect on tyrosine hydroxylase phosphorylation at Ser40 ([1]; 3 mg/kg, at 30 minutes or 60 minutes): neither the compound of Example 1 nor of Example 2 has a significant effect | ERK2 phosphorylation at Thr183 and Tyr185 (ERK2): slight decrease | GluR1 phosphorylation at Ser845 (GluR1): slight increase | effect on NR2B phosphorylation at Tyr1472 (NR2B): neither the compound of Example 1 nor of Example 2 has a significant effect

O=C1CN2c3c(cccc3[C@@H]3CN(CCCOc4ccc(F)cc4)CC[C@@H]32)N1 [Example 2, (6bR,10aS)-8-(3-(4-fluorophenoxy)propyl)-6b,7,8,9,10,10a-hexahydro-1H-pyrido[3′,4′:4,5]pyrrolo[1,2,3-de]quinoxalin-2(3H)-one]
bioavailability (in vivo [2]): 100% | RR (breaths/min) (rats [3]; 0.3 mg/kg s.c.): 181 breaths/min | RR (breaths/min) (rats [3]; 1.0 mg/kg s.c.): 203 breaths/min | RR (breaths/min) (rats [3]; 3.0 mg/kg s.c.): 190 breaths/min | respiratory rate, tidal volume and minute volume compared to vehicle control (rats [3]; 0.3, 1.0 and 3.0 mg/kg s.c., 0, 15, 60, 120, and 240 minutes): no significant differences | ED50 (5-HT2 receptor): 0.44 mg/kg | Mean Behavior Rating (0-4), 0-10 Min (C57 mice; [6]): 0.9 | Mean Behavior Rating (0-4), 0-6 min (C57 mice; [6]): 1.5 | Mean Behavior Rating (0-4), 11-40 min (C57 mice; [6]): 0.8 | Mean Behavior Rating (0-4), 16-40 min (C57 mice; [6]): 0.9 | Mean Behavior Rating (0-4), 0-6 min (C57 mice; [7]): 2.3 | Mean Behavior Rating (0-4), 11-40 min (C57 mice; [7]): 1.0 | Mean Behavior Rating (0-4), 16-40 min (C57 mice; [7]): 1.2 | Mean Behavior Rating (0-4), 0-10 Min (C57 mice; [8]): 1.3 | Mean Behavior Rating (0-4), 0-6 min (C57 mice; [8]): 1.9 | Mean Behavior Rating (0-4), 11-40 min (C57 mice; [8]): 1.0 | Mean Behavior Rating (0-4), 16-40 min (C57 mice; [8]): 1.1 | Mean Behavior Rating (0-4), 0-10 Min (C57 mice; [9]): 0.8 | Mean Behavior Rating (0-4), 0-6 min (C57 mice; [9]): 1.3 | Mean Behavior Rating (0-4), 11-40 min (C57 mice; [9]): 0.1 | Mean Behavior Rating (0-4), 16-40 min (C57 mice; [9]): 0.1 | Mean Behavior Rating (0-4), 0-10 Min (C57 mice; mouse, in vivo): 1.5 | Marbles Buried (Mice; 0.3 mg/kg orally 30 minutes prior, of fifteen marbles, 30 min): 9.3 | Tmax (in vivo [4]; brain, po, 10 mg/kg): 15 min | Tmax (in vivo [4]; brain, sc, 0.1 mg/kg): 60 min | Tmax (in vivo [4]; plasma, po, 10 mg/kg): 15 min | Tmax (in vivo [4]; plasma, sc, 0.1 mg/kg): 30 min

Cc1cccc(C#Cc2ccccc2)n1 [MPEP, 2-methyl-6-(phenylethynyl)pyridine, reference compound]
Marbles Buried (Mice; 20 mg/kg intraperitoneal just prior to test, positive control): 0.2

CN1CC[C@]23c4c5ccc(O)c4O[C@H]2[C@@H](O)C=C[C@H]3[C@H]1C5 [Morphine, morphine, reference compound]
reduction in gastric motility (rats [5]): ~50% | Mean Behavior Rating (0-4), 0-10 Min (C57 mice; [10]): 1.1 | Mean Behavior Rating (0-4), 0-6 min (C57 mice; [10]): 1.7 | Mean Behavior Rating (0-4), 11-40 min (C57 mice; [10]): 0.2 | Mean Behavior Rating (0-4), 16-40 min (C57 mice; [10]): 0.2

O=C(CCCN1CCC(O)(c2ccc(Cl)cc2)CC1)c1ccc(F)cc1 [haloperidol]
increase in TH phosphorylation [1]: greater than 400%

Cc1nc2n(c(=O)c1CCN1CCC(c3noc4cc(F)ccc34)CC1)CCCC2 [risperidone]
increase in TH phosphorylation [1]: greater than 500%
